Numbers after ± are expanded uncertainties. Blank lines part the entries; values can stand above or below the molecule they belong to.
Conditions: 101.33 kPa, Liquid, Vibrating tube method

Compound: Cc1ccc(O)cc1 [4-methylphenol]
mass density (313.15 K): 1018.8 ± 0.08 kg/m3

Compound: Cc1ccccc1O [2-methylphenol]
mass density (308.15 K): 1032.73 ± 0.28 kg/m3

Compound: Cc1cccc(O)c1 [3-methylphenol]
mass density (293.15 K): 1033.85 ± 0.09 kg/m3

Continued, values first:

mass density (313.15 K): 1058.3 ± 0.11 kg/m3
Compound: Oc1ccccc1 [phenol]

mass density (298.15 K): 698.49 ± 0.23 kg/m3
Compound: CCCCCCCC [octane]

mass density (298.15 K): 679.43 ± 0.23 kg/m3
Compound: CCCCCCC [heptane]

Source: the NIST ThermoML archive (doi:10.1021/je1007923)
